In the supplement of paper PMC8671470:

Assays:
Conditions in all cases: 72 h
HL-60 [1] = assay: area under dose-response curve (viability, 1 nM-10 uM) (fraction (0-1)); higher = more sensitive
Method in brief: (§1)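 Four-parameter log-logistic fits in drc and PharmacoGx supplied area under the curve where it is given. Underlying viability came from CellTiter-Glo, normalised to DMSO and proteasome-inhibitor wells, with the proteasome inhibitor at 10 μM. HL-60 cells in RPMI 1640 plus 10% FBS had been rescreened against the full library at five tenfold concentrations of 1–10,000 nM, in duplicate on 384-well plates, with DMSO or 100 nM of one of three metabolic inhibitors, for 72 h at 37 °C, 5% CO2.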

HEL [2] = system: HEL
Method in brief: (§2)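 The IC50 was derived from log-logistic dose–response fitting. Each of fifteen myeloid leukaemia cell lines, seeded in RPMI 1640 within its linear growth range, was exposed in 384-well plates to five tenfold doses (1 to 10,000 nM) in duplicate for 72 h at 37 °C and 5% CO2. Luminescent ATP viability readings were normalised to vehicle and to a positive control at 10 µM before four-parameter curve fitting.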

NOMO-1 [3] = system: NOMO-1
Method in brief: as §2

BV-173 [4] = system: BV-173
Method in brief: as §2

MOLM-13 = system: MOLM-13
Method in brief: as §2

KG-1 = system: KG-1
Method in brief: as §2

THP-1 = system: THP-1
Method in brief: as §2

KCL-22 [5] = system: KCL-22
Method in brief: as §2

MV4-11 = system: MV4-11
Method in brief: as §2

HL-60 [6] = system: HL-60
Method in brief: as §2

KU-812 [7] = system: KU-812
Method in brief: as §2

Mono-Mac-6 [8] = system: Mono-Mac-6
Method in brief: as §2

ML-2 [9] = system: ML-2
Method in brief: as §2

LAMA-84 [10] = system: LAMA-84
Method in brief: as §2

K-562 [11] = system: K-562
Method in brief: as §2

SHI-1 [12] = system: SHI-1
Method in brief: as §2

HL-60 [13] = assay: cell viability (% survival relative to DMSO control); higher = less cytotoxic
Method in brief: as §1

HEL [14] = assay: cell viability (% survival relative to DMSO control, bortezomib = 0%); higher = less cytotoxic
Method in brief: (§3)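 Reported values are percent survival from duplicate wells, averaged. Fifteen myeloid leukaemia cell lines were treated in 384-well plates with compounds at 1, 10, 100, 1000 or 10000 nM for 72 h at 37 °C in 5% CO2. Signals from CellTiter-Glo luminescence were scaled with vehicle as 100% and a 10 µM positive control as 0%.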

NOMO-1 [15] = assay: as above
Method in brief: as §3

BV-173 [16] = assay: as above
Method in brief: as §3

KCL-22 [17] = assay: as above
Method in brief: as §3

HL-60 [18] = assay: as above
Method in brief: as §3

KU-812 [19] = assay: as above
Method in brief: as §3

Mono-Mac-6 [20] = assay: as above
Method in brief: as §3

ML-2 [21] = assay: as above
Method in brief: as §3

LAMA-84 [22] = assay: as above
Method in brief: as §3

K-562 [23] = assay: as above
Method in brief: as §3

SHI-1 [24] = assay: as above
Method in brief: as §3

CCCCCCCCCCC[C@@H](C[C@@H]1OC(=O)[C@H]1CCCCCC)OC(=O)[C@H](CC(C)C)NC=O [Orlistat]
Conditions | area under dose-response curve, co-treatment: AZD3965 100 nM | area under dose-response curve, co-treatment: DMSO vehicle | area under dose-response curve, co-treatment: GSK2194069 100 nM | area under dose-response curve, co-treatment: pictilisib 100 nM | cell viability, 1 nM [%] | cell viability, 10 nM [%] | cell viability, 100 nM [%] | cell viability, 1000 nM [%] | cell viability, 10000 nM [%]
BV-173 [16] | – | – | – | – | 86.3 | 92 | 79.9 | 87.5 | 82
HEL [14] | – | – | – | – | 102 | 107 | 95.3 | 101 | 90.8
HL-60 [1] | < 0.0301 | < 0.0301 | 0.0449 | < 0.0301 | – | – | – | – | –
HL-60 [18] | – | – | – | – | 122 | 105 | 108 | 106 | 98.7
K-562 [23] | – | – | – | – | 118 | 85.1 | 88.2 | 103 | 103
KCL-22 [17] | – | – | – | – | 105 | 87.9 | 90.2 | 97 | 86.9
KU-812 [19] | – | – | – | – | 98.3 | 92.1 | 96.4 | 98.5 | 89.6
LAMA-84 [22] | – | – | – | – | 101 | 103 | 93.9 | 93.7 | 94.4
ML-2 [21] | – | – | – | – | 93.6 | 101 | 93.6 | 88.6 | 86
Mono-Mac-6 [20] | – | – | – | – | 114 | 91.1 | 97.7 | 103 | 87.7
NOMO-1 [15] | – | – | – | – | 101 | 95 | 96.6 | 106 | 96.5
SHI-1 [24] | – | – | – | – | 101 | 102 | 106 | 108 | 102

Conditions | IC50 (cell viability) [µM]
BV-173 [4] | > 10
HEL [2] | > 10
HL-60 [6] | > 10
K-562 [11] | > 10
KCL-22 [5] | > 10
KG-1 | > 10
KU-812 [7] | > 10
LAMA-84 [10] | > 10
ML-2 [9] | > 10
MOLM-13 | > 10
MV4-11 | > 10
Mono-Mac-6 [8] | > 10
NOMO-1 [3] | > 10
SHI-1 [12] | > 10
THP-1 | > 10

cell viability [%], HL-60 [13]
Conditions | 0.001 µM | 0.01 µM | 0.1 µM | 1 µM | 10 µM
co-treatment: AZD3965 100 nM | 98.6 | 99.5 | 102 | 94.9 | 100
co-treatment: DMSO vehicle | 93.7 | 105 | 104 | 98.57 | 99.8
co-treatment: GSK2194069 100 nM | 94.4 | 96.4 | 109 | 94.7 | 77.7
co-treatment: pictilisib 100 nM | 99.1 | 109 | 95.6 | 94.4 | 90.5
